Measurements as given in PubChem BioAssay (NCI).
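Test compounds were applied to cells in 96-well plates for 48 hours at 5 doses. Abbreviation: GI50, concentration required for 50% inhibition of growth. TGI marks complete inhibition of growth.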

Tests used:
Assay in all cases: NCI anticancer screen, dose series, 48 h
[1] = system: MOLT-4 leukemia
[2] = system: DU-145 prostate
[3] = system: HCT-116 colon
[4] = system: BT-549 breast
[5] = system: TK-10 renal
[6] = system: NCI/ADR-RES ovarian
[7] = system: COLO 205 colon
[8] = system: SW-620 colon
[9] = system: UACC-257 melanoma
[10] = system: OVCAR-5 ovarian
[11] = system: HT29 colon
[12] = system: SK-MEL-28 melanoma
[13] = system: PC-3 prostate
[14] = system: KM12 colon
[15] = system: RPMI-8226 leukemia
[16] = system: IGROV1 ovarian
[17] = system: OVCAR-4 ovarian
[18] = system: SR leukemia
[19] = system: A549 NSCLC
[20] = system: OVCAR-8 ovarian
[21] = system: NCI-H460 lung
[22] = system: RXF 393 renal
[23] = system: A498 renal
[24] = system: SN12C renal
[25] = system: HOP-92 NSCLC
[26] = system: MCF7 breast
[27] = system: MALME-3M melanoma
[28] = system: SK-MEL-2 melanoma
[29] = system: HOP-62 NSCLC
[30] = system: UO-31 renal
[31] = system: NCI-H522 lung
[32] = system: SF-539 CNS
[33] = system: CCRF-CEM leukemia
[34] = system: MDA-MB-231 breast
[35] = system: OVCAR-3 ovarian
[36] = system: HCC-2998 colon
[37] = system: HL-60(TB) leukemia
[38] = system: SNB-19 CNS
[39] = system: UACC-62 melanoma
[40] = system: HCT-15 colon
[41] = system: EKVX NSCLC
[42] = system: SK-OV-3 ovarian
[43] = system: M14 melanoma
[44] = system: SF-268 CNS
[45] = system: T-47D breast
[46] = system: NCI-H226 lung
[47] = system: ACHN renal

SMILES: Cc1cc(O)c(=O)cc2c1C[C@H]1CC(C)(C)/C=C/C[C@]3(C)Oc4cc(=O)c(O)cc(C)c4C[C@H]3C[C@H](O)[C@@]1(C)O2
- GI50 [1]: 7.93 nM
- TGI [1]: > 16700 nM
- GI50 [2]: 5.61 nM
- TGI [2]: > 16700 nM
- GI50 [3]: < 1.67 nM
- TGI [3]: > 16700 nM
- GI50 [4]: 12.5 nM
- TGI [4]: > 16700 nM
- GI50 [5]: 8.98 nM
- GI50 [6]: 8.45 nM
- GI50 [7]: 5.71 nM
- TGI [7]: 25.8 nM
- GI50 [8]: 2.91 nM
- TGI [8]: > 16700 nM
- GI50 [9]: 13.5 nM
- TGI [9]: 84.1 nM
- GI50 [10]: 13.6 nM
- TGI [10]: > 16700 nM
- GI50 [11]: 3.1 nM
- TGI [11]: > 16700 nM
- GI50 [12]: 15.6 nM
- TGI [12]: > 16700 nM
- GI50 [13]: 5.38 nM
- TGI [13]: > 16700 nM
- GI50 [14]: 7.17 nM
- TGI [14]: > 16700 nM
- GI50 [15]: 8.31 nM
- TGI [15]: > 16700 nM
- GI50 [16]: 16.3 nM
- TGI [16]: > 16700 nM
- GI50 [17]: 12 nM
- TGI [17]: > 16700 nM
- GI50 [18]: 14.9 nM
- TGI [18]: > 16700 nM
- GI50 [19]: 6.97 nM
- TGI [19]: > 16700 nM
- GI50 [20]: 6.1 nM
- TGI [20]: > 16700 nM
- GI50 [21]: < 1.67 nM
- TGI [21]: 17.3 nM
- GI50 [22]: 10.5 nM
- TGI [22]: 142 nM
- GI50 [23]: 25.9 nM
- TGI [23]: 80.9 nM
- GI50 [24]: 5.11 nM
- TGI [24]: > 4910 nM
- GI50 [25]: 5.54 nM
- TGI [25]: 112 nM
- GI50 [26]: 3.81 nM
- TGI [26]: > 16700 nM
- GI50 [27]: 6.36 nM
- TGI [27]: 32 nM
- GI50 [28]: 8.83 nM
- TGI [28]: 496 nM
- GI50 [29]: 5.72 nM
- TGI [29]: 40.1 nM
- GI50 [30]: 7.73 nM
- TGI [30]: 53.2 nM
- GI50 [31]: 7.68 nM
- TGI [31]: 51.7 nM
- GI50 [32]: 10.4 nM
- TGI [32]: 71.4 nM
- GI50 [33]: 10.1 nM
- TGI [33]: > 16700 nM
- GI50 [34]: 19.9 nM
- TGI [34]: > 16700 nM
- GI50 [35]: 12 nM
- TGI [35]: > 16700 nM
- GI50 [36]: 20.3 nM
- TGI [36]: > 16700 nM
- GI50 [37]: 20.2 nM
- TGI [37]: 128 nM
- GI50 [38]: < 1.67 nM
- TGI [38]: > 16700 nM
- GI50 [39]: 27.2 nM
- TGI [39]: 85.4 nM
- GI50 [40]: 2.81 nM
- TGI [40]: > 16700 nM
- GI50 [41]: 11 nM
- GI50 [42]: 10.1 nM
- TGI [42]: 95.2 nM
- GI50 [43]: 11.7 nM
- TGI [43]: 140 nM
- GI50 [44]: 7.71 nM
- TGI [44]: > 16700 nM
- GI50 [45]: 2.52 nM
- TGI [45]: 16.3 nM
- GI50 [46]: 24 nM
- GI50 [47]: 6.01 nM
- TGI [47]: 50.4 nM
